In BindingDB's records for doi:10.1016/j.bmcl.2016.03.078 (Merck Research Laboratories, 2016):

Target: E3 ubiquitin-protein ligase Mdm2 (Homo sapiens, UniProt Q00987)
Test: Displacement of Ac-Phe-Arg-Dpr(fluorophore)-Ac6c-(6-Br)Trp-Glu-Glu-Leu-NH2 from human N-terminal His6-tagged MDM2 (17 to 125 residues) expressed in Escherichia coli by fluorescence polarization assay

Chain of E3 ubiquitin-protein ligase Mdm2 (Q00987 whole entry, the tested form may be a part): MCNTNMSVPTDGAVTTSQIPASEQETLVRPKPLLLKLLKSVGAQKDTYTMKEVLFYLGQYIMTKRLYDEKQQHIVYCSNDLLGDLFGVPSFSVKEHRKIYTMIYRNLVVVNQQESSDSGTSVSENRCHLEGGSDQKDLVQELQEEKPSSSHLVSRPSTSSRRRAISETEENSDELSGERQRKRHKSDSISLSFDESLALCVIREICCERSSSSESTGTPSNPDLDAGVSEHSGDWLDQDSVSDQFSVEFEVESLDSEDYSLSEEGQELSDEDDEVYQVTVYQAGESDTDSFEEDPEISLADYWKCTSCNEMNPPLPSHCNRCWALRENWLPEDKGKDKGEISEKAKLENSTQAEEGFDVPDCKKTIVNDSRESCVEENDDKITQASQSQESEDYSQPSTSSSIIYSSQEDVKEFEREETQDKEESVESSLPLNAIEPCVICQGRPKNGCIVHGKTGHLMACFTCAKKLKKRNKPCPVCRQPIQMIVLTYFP

Question: How did the IC50 turn out when `O=C(c1cnccc1C(F)(F)F)N1CCCC(Oc2ccc(C(F)(F)F)cc2)(C(=O)N2CCN(c3ccccn3)CC2)C1` (stereo unspecified) was run?
Answer: 2300 nM
